Test results from paper PMC3368261, “Substituted aminopyrimidine protein kinase B (PknB) inhibitors show activity against Mycobacterium tuberculosis” (Bioorganic & Medicinal Chemistry Letters, 2012).
Converted amounts (≈) assume the structure as drawn. Like-named read-outs stand apart in the source and are kept apart here.

Tests used:
[1] = target: PknB (Mycobacterium tuberculosis, UniProt P9WI81); assay: PknB enzyme inhibition, in vitro phosphorylation of the substrate GarA; type: biochemical
[2] = tested on: M. tuberculosis; assay: Alamar blue cellular assay against M. tuberculosis (MIC); type: cell-based; conditions: Mycobacterium tuberculosis
[3] = physchem; type: physicochemical
[4] = tested on: 76-member human kinase panel; type: biochemical; conditions: 10 μM inhibitor concentration, 76 kinases
[5] = assay conditions described in Ref. [8] (Table 5: Ref. [10]), read-out: PknB IC50

PknB, sequence (P9WI81 whole entry): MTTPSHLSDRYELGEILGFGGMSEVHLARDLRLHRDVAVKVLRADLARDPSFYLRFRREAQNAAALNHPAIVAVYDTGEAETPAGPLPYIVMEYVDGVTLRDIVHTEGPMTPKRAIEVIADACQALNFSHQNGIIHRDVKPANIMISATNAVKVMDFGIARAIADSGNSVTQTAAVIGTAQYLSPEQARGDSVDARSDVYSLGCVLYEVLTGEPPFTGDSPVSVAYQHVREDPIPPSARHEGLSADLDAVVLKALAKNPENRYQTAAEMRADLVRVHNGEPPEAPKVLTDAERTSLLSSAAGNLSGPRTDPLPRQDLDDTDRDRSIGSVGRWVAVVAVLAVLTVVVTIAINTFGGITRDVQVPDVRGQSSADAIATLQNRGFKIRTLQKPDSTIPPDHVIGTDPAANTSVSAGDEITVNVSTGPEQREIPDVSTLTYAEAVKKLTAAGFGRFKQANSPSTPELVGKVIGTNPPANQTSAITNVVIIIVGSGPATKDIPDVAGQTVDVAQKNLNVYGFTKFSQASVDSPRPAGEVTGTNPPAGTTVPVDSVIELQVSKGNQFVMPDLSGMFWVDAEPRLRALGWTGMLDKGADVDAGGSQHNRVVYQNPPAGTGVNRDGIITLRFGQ

## Cc1cc(Nc2nc(-c3ccncc3)nc3ccccc23)n[nH]1 [Compound 1]
[1]; high throughput screen, GarA phosphorylation, read-out: PknB inhibition (HTS hit)
  IC50: 1350 nM

## c1ccc2c(Nc3cc(C4CC4)[nH]n3)nc(-c3ccncc3)nc2c1 [Compound 5a]
[1]
  improvement in PknB binding affinity: fourfold improvement in binding affinity
[1]; read-out: PknB IC50
  IC50: 322 nM

## Fc1ccc(-c2nc(Nc3cc[nH]n3)c3ccccc3n2)cc1 [Compound 5b]
[1]; [5]
  IC50: 453 nM

## Cc1cc(Nc2nc(-c3ccc(F)cc3)nc3ccccc23)n[nH]1 [Compound 5c]
[1]; [5]
  IC50: 1160 nM

## Fc1ccc(-c2nc(Nc3cc(C4CC4)[nH]n3)c3ccccc3n2)cc1 [Compound 5d]
[1]; [5]
  IC50: 223 nM

## c1ccc(-c2nc(Nc3cc(C4CC4)[nH]n3)c3ccccc3n2)cc1 [Compound 5e]
[1]; [5]
  IC50: 440 nM

## c1ccc2c(Nc3cc(C4CC4)[nH]n3)nc(NC3CCCCC3)nc2c1 [Compound 5f]
[1]; read-out: PknB IC50
  IC50: 107 nM

## c1ccc2c(Nc3cc(C4CC4)[nH]n3)nc(NCC3CC3)nc2c1 [Compound 5g]
[1]; [5]
  IC50: 428 nM

## Fc1ccc(-c2nccc(Nc3cc(C4CC4)[nH]n3)n2)cc1 [Compound 8a]
[1]; [5]
  IC50: 375 nM
[2]
  MIC: > 500 µM

## NC(=O)c1cccc(-c2nccc(Nc3cc(C4CC4)[nH]n3)n2)c1 [Compound 8b]
[1]; [5]
  IC50: 384 nM
[2]
  MIC: 63 µM (≈ 20.2 µg/mL)

## CS(=O)(=O)Nc1cccc(-c2nccc(Nc3cc(C4CC4)[nH]n3)n2)c1 [Compound 8c]
[1]; [5]
  IC50: 393 nM
[2]
  MIC: 31 µM (≈ 11.5 µg/mL)

## CS(=O)(=O)c1cccc(-c2nccc(Nc3cc(C4CC4)[nH]n3)n2)c1 [Compound 8d]
[1]; [5]
  IC50: 86 nM
[2]
  MIC: 63 µM (≈ 22.4 µg/mL)

## CS(=O)(=O)NCc1ccc(-c2nccc(Nc3cc(C4CC4)[nH]n3)n2)cc1 [Compound 8e]
[1]; [5]
  IC50: 241 nM
[2]
  MIC: 63 µM (≈ 24.2 µg/mL)

## N#Cc1cccc(-c2nccc(Nc3cc(C4CC4)[nH]n3)n2)c1 [Compound 8f]
[1]; read-out: PknB IC50
  IC50: 87 nM
[2]
  MIC: 125 µM (≈ 37.8 µg/mL)

## c1cncc(-c2nccc(Nc3cc(C4CC4)[nH]n3)n2)c1 [Compound 8g]
[1]; [5]
  IC50: 202 nM
[2]
  MIC: 125 µM (≈ 34.8 µg/mL)

## c1cc(Nc2cc(C3CC3)[nH]n2)nc(NC2CCCCC2)n1 [Compound 8h]
[1]; [5]
  IC50: 84 nM
[2]
  MIC: 63 µM (≈ 18.8 µg/mL)

## CC(C)CCNc1nccc(Nc2cc(C3CC3)[nH]n2)n1 [Compound 8i]
[1]; [5]
  IC50: 354 nM
[2]
  MIC: 63 µM (≈ 18 µg/mL)

## c1ccc(CNc2nccc(Nc3cc(C4CC4)[nH]n3)n2)cc1 [Compound 8j]
[1]; [5]
  IC50: 715 nM
[2]
  MIC: 125 µM (≈ 38.3 µg/mL)

## Fc1cccc(CCNc2nccc(Nc3cc(C4CC4)[nH]n3)n2)c1 [Compound 8k]
[1]; read-out: PknB IC50
  IC50: 74 nM
[2]
  MIC: 63 µM (≈ 21.3 µg/mL)

## Clc1ccccc1CCNc1nccc(Nc2cc(C3CC3)[nH]n2)n1 [Compound 8l]
[1]; [5]
  IC50: 64 nM
[2]
  MIC: 125 µM (≈ 44.4 µg/mL)

## c1cc(Nc2cc(C3CC3)[nH]n2)nc(NCC2CC2)n1 [Compound 8m]
[1]; read-out: PknB IC50
  IC50: 217 nM
[2]
  MIC: 250 µM (≈ 67.6 µg/mL)

## c1cc(Nc2cc(C3CC3)[nH]n2)nc(NC2CCCC2)n1 [Compound 8n]
[1]; [5]
  IC50: 115 nM
[2]
  MIC: 63 µM (≈ 17.9 µg/mL)

## CN(C)CCNc1cc(Nc2cc(C3CC3)[nH]n2)nc(-c2ccccc2)n1 [Compound 11a]
[1]; [5]
  IC50: 88 nM
[2]
  MIC: 125 µM (≈ 45.4 µg/mL)
[3]
  logD: 3.7

## CN1CCN(c2cc(Nc3cc(C4CC4)[nH]n3)nc(-c3ccccc3)n2)CC1 [Compound 11b]
[1]; [5]
  IC50: 121 nM
[2]
  MIC: 63 µM (≈ 23.7 µg/mL)
[3]
  logD: 3.6

## CN1CCC(CNc2cc(Nc3cc(C4CC4)[nH]n3)nc(-c3ccccc3)n2)CC1 [Compound 11c]
[1]; read-out: PknB IC50
  IC50: 55 nM
[2]
  MIC: 31 µM (≈ 12.5 µg/mL)
[3]
  logD: 2.3

## CN1CCC(Nc2cc(Nc3cc(C4CC4)[nH]n3)nc(-c3ccccc3)n2)CC1 [Compound 11d]
[1]; [5]
  IC50: 73 nM
[2]
  MIC: 31 µM (≈ 12.1 µg/mL)
[3]
  logD: 2.3

## CN(C)[C@@H]1CCN(c2cc(Nc3cc(C4CC4)[nH]n3)nc(-c3ccccc3)n2)C1 [Compound 11e]
[1]; [5]
  IC50: 53 nM
[2]
  MIC: 16 µM (≈ 6.23 µg/mL)
[3]
  logD: 3.8

## c1ccc(-c2nc(Nc3cc(C4CC4)[nH]n3)cc(OCCN3CCCC3)n2)cc1 [Compound 11f]
[1]; [5]
  IC50: 56 nM
[2]
  MIC: 31 µM (≈ 12.1 µg/mL)
[3]
  logD: 3.4

## CN(C)[C@@H]1CCN(c2cc(Nc3cc(C4CC4)[nH]n3)nc(-c3cccc(C#N)c3)n2)C1 [Compound 15a]
[1]; [5]
  IC50: 56 nM
[2]
  MIC: 63 µM (≈ 26.1 µg/mL)

## CN(C)CCNc1cc(Nc2cc(C3CC3)[nH]n2)nc(-c2cccc(C#N)c2)n1 [Compound 15b]
[1]
  gain in PknB enzyme affinity: approximately twofold
[1]; [5]
  IC50: 39 nM
[2]
  MIC: 63 µM (≈ 24.5 µg/mL)

## CN1CCC(CNc2cc(Nc3cc(C4CC4)[nH]n3)nc(-c3cccc(C#N)c3)n2)CC1 [Compound 15c]
[1]
  gain in PknB enzyme affinity: approximately twofold
[1]; [5]
  IC50: 23 nM
[2]
  MIC: 31 µM (≈ 13.3 µg/mL)

## CN1CCC(CNc2cc(Nc3cc(C4CC4)[nH]n3)nc(-c3cccc(S(C)(=O)=O)c3)n2)CC1 [Compound 15d]
[1]; read-out: PknB IC50
  IC50: 40 nM
[2]
  MIC: 63 µM (≈ 30.3 µg/mL)

## CN(C)[C@@H]1CCN(c2cc(Nc3ccccn3)nc(-c3cccc(C#N)c3)n2)C1 [Compound 16a]
[1]; [5]
  IC50: 1990 nM
[2]
  MIC: 31 µM (≈ 11.9 µg/mL)

## COc1ccnc(Nc2cc(N3CC[C@@H](N(C)C)C3)nc(-c3ccccc3)n2)c1 [Compound 16b]
[1]; [5]
  IC50: 1130 nM
[2]
  MIC: 31 µM (≈ 12.1 µg/mL)

## CN(C)[C@@H]1CCN(c2cc(Nc3cc(Cl)ccn3)nc(-c3ccccc3)n2)C1 [Compound 16c]
[4]
  kinase selectivity against human kinase panel: improvement in selectivity relative to 11e
[1]; [5]
  IC50: 176 nM
[2]
  MIC: 8 µM (≈ 3.16 µg/mL)

## CN(C)[C@@H]1CCN(c2cc(Nc3cc(C(F)(F)F)ccn3)nc(-c3cccc(C#N)c3)n2)C1 [Compound 16d]
[1]; read-out: PknB IC50
  IC50: 40 nM
[2]
  MIC: 16 µM (≈ 7.26 µg/mL)
